Test results taken from the supplement of paper PMC10307832.

How the values were obtained:
Experiment in all cases: relative viability (nuclei count vs DMSO), 5 days (fraction); higher = more cells survive
DM3189 = compound: C1CN(CCN1)C2=CC=C(C=C2)C3=CN4C(=C(C=N4)C5=CC=NC6=CC=CC=C56)N=C3 [DM3189]
How it was run: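 Vehicle-anchored 1536-well plates of lung cancer cell lines, held overnight at 37 °C, were pinned with five library-drug doses (not always all listed) spaced by √10. No medium change followed over the next 5 days, after which the cells were fixed, permeabilised and Hoechst-stained together and imaged at 4×. Nuclei were counted with MetaXpress, and viability is treated-well nuclei over vehicle-well nuclei, taken as a median across plates. Plates passed with control CV below 25% and at least one doubling.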

DM3189 + Navitoclax = compound: C1CN(CCN1)C2=CC=C(C=C2)C3=CN4C(=C(C=N4)C5=CC=NC6=CC=CC=C56)N=C3 [DM3189] + CC1(C)CCC(c2ccc(Cl)cc2)=C(CN2CCN(c3ccc(C(=O)NS(=O)(=O)c4ccc(N[C@H](CCN5CCOCC5)CSc5ccccc5)c(S(=O)(=O)C(F)(F)F)c4)cc3)CC2)C1 [Navitoclax] (partner 0.5 µM)
How it was run: (§1)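 Nuclei were stained with Hoechst during a one-step fixation (final 0.05% Triton X-100, 1% formaldehyde, 1 ug/ml Hoechst) carried out 5 days after dosing, then counted on 4× images. The cells, lung cancer lines in 1536-well plates, had been dosed by pin tool the day after seeding with one drug alone or a fixed anchor-drug dose plus five library-drug doses (not always all listed) in √10 steps. Relative viability is the nuclei count in treated wells divided by that in vehicle wells, and each value is the median of duplicate plates.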

DM3189 + Foretinib = compound: C1CN(CCN1)C2=CC=C(C=C2)C3=CN4C(=C(C=N4)C5=CC=NC6=CC=CC=C56)N=C3 [DM3189] + COc1cc2c(Oc3ccc(NC(=O)C4(C(=O)Nc5ccc(F)cc5)CC4)cc3F)ccnc2cc1OCCCN1CCOCC1 [Foretinib] (partner 0.25 µM)
How it was run: as §1

DM3189 + Lapatinib = compound: C1CN(CCN1)C2=CC=C(C=C2)C3=CN4C(=C(C=N4)C5=CC=NC6=CC=CC=C56)N=C3 [DM3189] + CS(=O)(=O)CCNCc1ccc(-c2ccc3ncnc(Nc4ccc(OCc5cccc(F)c5)c(Cl)c4)c3c2)o1 [Lapatinib] (partner 2 µM)
How it was run: as §1

DM3189 + Pictilisib = compound: C1CN(CCN1)C2=CC=C(C=C2)C3=CN4C(=C(C=N4)C5=CC=NC6=CC=CC=C56)N=C3 [DM3189] + CS(=O)(=O)N1CCN(Cc2cc3nc(-c4cccc5[nH]ncc45)nc(N4CCOCC4)c3s2)CC1 [Pictilisib] (partner 1 µM)
How it was run: as §1

DM3189 + Crizotinib = compound: C1CN(CCN1)C2=CC=C(C=C2)C3=CN4C(=C(C=N4)C5=CC=NC6=CC=CC=C56)N=C3 [DM3189] + C[C@@H](Oc1cc(-c2cnn(C3CCNCC3)c2)cnc1N)c1c(Cl)ccc(F)c1Cl [Crizotinib] (partner 1 µM)
How it was run: as §1

DM3189 + Linsitinib = compound: C1CN(CCN1)C2=CC=C(C=C2)C3=CN4C(=C(C=N4)C5=CC=NC6=CC=CC=C56)N=C3 [DM3189] + C[C@]1(O)C[C@@H](c2nc(-c3ccc4ccc(-c5ccccc5)nc4c3)c3c(N)nccn32)C1 [Linsitinib] (partner 1 µM)
How it was run: as §1

DM3189 + Alpelisib = compound: C1CN(CCN1)C2=CC=C(C=C2)C3=CN4C(=C(C=N4)C5=CC=NC6=CC=CC=C56)N=C3 [DM3189] + Cc1nc(NC(=O)N2CCC[C@H]2C(N)=O)sc1-c1ccnc(C(C)(C)C(F)(F)F)c1 [Alpelisib] (partner 2 µM)
How it was run: as §1

DM3189 + Phenformin = compound: C1CN(CCN1)C2=CC=C(C=C2)C3=CN4C(=C(C=N4)C5=CC=NC6=CC=CC=C56)N=C3 [DM3189] + N=C(N)NC(=N)NCCc1ccccc1 [Phenformin] (partner 250 µM)
How it was run: as §1

DM3189 + Decitabine = compound: C1CN(CCN1)C2=CC=C(C=C2)C3=CN4C(=C(C=N4)C5=CC=NC6=CC=CC=C56)N=C3 [DM3189] + Nc1ncn([C@H]2C[C@H](O)[C@@H](CO)O2)c(=O)n1 [Decitabine] (partner 2 µM)
How it was run: as §1

DM3189 + Olaparib = compound: C1CN(CCN1)C2=CC=C(C=C2)C3=CN4C(=C(C=N4)C5=CC=NC6=CC=CC=C56)N=C3 [DM3189] + O=C(c1cc(Cc2n[nH]c(=O)c3ccccc23)ccc1F)N1CCN(C(=O)C2CC2)CC1 [Olaparib] (partner 8 µM)
How it was run: as §1

A549 gave a relative viability (DM3189; 0.08 µM) of 1.06, a relative viability (DM3189; 0.253 µM) of 1.06 and a relative viability (DM3189; 0.8 µM) of 0.993. It also gave a relative viability (DM3189; 2.53 µM) of 1.08, a relative viability (DM3189 + Navitoclax; first compound 0.08 µM) of 1.23 and a relative viability (DM3189 + Navitoclax; first compound 0.253 µM) of 1.27. It also gave a relative viability (DM3189 + Navitoclax; first compound 0.8 µM) of 1.28, a relative viability (DM3189 + Navitoclax; first compound 2.53 µM) of 1.3 and a relative viability (DM3189 + Foretinib; first compound 0.08 µM) of 0.989. For the same cell line, the relative viability (DM3189 + Foretinib; first compound 0.253 µM) was 0.95, the relative viability (DM3189 + Foretinib; first compound 0.8 µM) was 0.998 and the relative viability (DM3189 + Foretinib; first compound 2.53 µM) was 0.976. The relative viability (DM3189 + Lapatinib; first compound 0.08 µM) was 0.916, the relative viability (DM3189 + Lapatinib; first compound 0.253 µM) was 1.01 and the relative viability (DM3189 + Lapatinib; first compound 0.8 µM) was 1.01. The relative viability (DM3189 + Lapatinib; first compound 2.53 µM) was 1, the relative viability (DM3189 + Pictilisib; first compound 0.08 µM) was 0.495 and the relative viability (DM3189 + Pictilisib; first compound 0.253 µM) was 0.481. The relative viability (DM3189 + Pictilisib; first compound 0.8 µM) was 0.48, the relative viability (DM3189 + Pictilisib; first compound 2.53 µM) was 0.357 and the relative viability (DM3189 + Crizotinib; first compound 0.08 µM) was 0.86. For the same cell line, the relative viability (DM3189 + Crizotinib; first compound 0.253 µM) was 0.763, the relative viability (DM3189 + Crizotinib; first compound 0.8 µM) was 0.755 and the relative viability (DM3189 + Crizotinib; first compound 2.53 µM) was 0.705. For the same cell line, the relative viability (DM3189 + Linsitinib; first compound 0.08 µM) was 0.654, the relative viability (DM3189 + Linsitinib; first compound 0.253 µM) was 0.593 and the relative viability (DM3189 + Linsitinib; first compound 0.8 µM) was 0.549. The relative viability (DM3189 + Linsitinib; first compound 2.53 µM) was 0.545, the relative viability (DM3189 + Alpelisib; first compound 0.08 µM) was 0.892 and the relative viability (DM3189 + Alpelisib; first compound 0.253 µM) was 0.806. For the same cell line, the relative viability (DM3189 + Alpelisib; first compound 0.8 µM) was 0.812, the relative viability (DM3189 + Alpelisib; first compound 2.53 µM) was 0.956 and the relative viability (DM3189 + Phenformin; first compound 0.08 µM) was 0.151. The relative viability (DM3189 + Phenformin; first compound 0.253 µM) was 0.162, the relative viability (DM3189 + Phenformin; first compound 0.8 µM) was 0.206 and the relative viability (DM3189 + Phenformin; first compound 2.53 µM) was 0.136. The relative viability (DM3189 + Decitabine; first compound 0.08 µM) was 0.26, the relative viability (DM3189 + Decitabine; first compound 0.253 µM) was 0.282 and the relative viability (DM3189 + Decitabine; first compound 0.8 µM) was 0.251. It also gave a relative viability (DM3189 + Decitabine; first compound 2.53 µM) of 0.325, a relative viability (DM3189 + Olaparib; first compound 0.08 µM) of 0.286 and a relative viability (DM3189 + Olaparib; first compound 0.253 µM) of 0.332. For the same cell line, the relative viability (DM3189 + Olaparib; first compound 0.8 µM) was 0.236 and the relative viability (DM3189 + Olaparib; first compound 2.53 µM) was 0.29.
